Patent US20060252740A1 (priority 2005, published 2006)

What was measured:
breast cancer cells = conditions: cited from earlier work
clinical = assay: clinical
Procedure: PK assessments included the following tests. […] The total number of PK samples collected was approximately 115 mL of whole blood (7-8 tablespoons). If a patient experienced a potentially drug-related SAE, additional PK samples were collected. Blood was drawn from the contralateral arm to the infusion site using an indwelling catheter to avoid multiple needle sticks. […] The blood tube was inverted several times and the tube placed in wet ice immediately pending separation of the plasma. If a catheter was used for blood collection, the fluid in the catheter was completely withdrawn prior to each sample collection and discarded. Plasma samples were kept on wet ice during collection and centrifugation. Plasma samples were split into two cryovials prior to freezing at −70° C.

leukemia cells = conditions: cited from earlier work
[1] = tested on: colon adenocarcinoma cells; conditions: cited from earlier work
[2] = Cohorts 1 & 2, 17-AAG 100 mg/m^2, Max
[3] = Cohorts 1 & 2, 17-AAG 100 mg/m^2, Mean
[4] = Cohorts 1 & 2, 17-AAG 100 mg/m^2, Median
[5] = Cohorts 1 & 2, 17-AAG 100 mg/m^2, Min
[6] = Cohorts 3 & 4, 17-AAG 150 mg/m^2, Max
[7] = Cohorts 3 & 4, 17-AAG 150 mg/m^2, Mean
[8] = Cohorts 3 & 4, 17-AAG 150 mg/m^2, Median
[9] = Cohorts 3 & 4, 17-AAG 150 mg/m^2, Min

For `C=CCNC1=C2C[C@@H](C)C[C@H](OC)[C@H](O)[C@@H](C)/C=C(\C)[C@H](OC(N)=O)[C@@H](OC)/C=C\C=C(/C)C(=O)NC(=CC1=O)C2=O` [17-AAG, 17-Allylamino-17-demethoxygeldanamycin], the “effect of exposure on client proteins” value (breast cancer cells) is given as “depletion of steroid receptors”, the AUCext (clinical; [2]) is given as 10.80% and the AUCextra (clinical; [2]) is given as 608.6 ng·h/mL. The AUClast (clinical; [2]) was 7,248.8 ng/mL * h, the AUCtotal (clinical; [2]) was 7,857.4 ng/mL * h and the Cmax (clinical; [2]) was 2,620 ng/mL. It also gave an MRT (clinical; [2]) of 6.04 h, a Tmax (clinical; [2]) of 3 h and a t1/2 (clinical; [2]) of 5.16 h. For the same compound, the AUCext (clinical; [3]) was 6%, the AUCtotal (clinical; [3]) was 3,805 ng/mL * h and the Clearance (clinical; [3]) was 28.63 L/h/m^2. The Vss (clinical; [3]) was 93.88 L/m^2, the Vz (clinical; [3]) was 104.58 L/m^2 and the AUCext (clinical; [4]) was 6.10%. For the same compound, the AUCtotal (clinical; [4]) was 3,513.8 ng/mL * h, the Clearance (clinical; [4]) was 28.46 L/h/m^2 and the Vss (clinical; [4]) was 79.65 L/m^2. The Vz (clinical; [4]) was 99.17 L/m^2, the AUCext (clinical; [5]) was 2.54% and the AUCextra (clinical; [5]) was 87.9 ng·h/mL. The AUClast (clinical; [5]) was 2,231.7 ng/mL * h, the AUCtotal (clinical; [5]) was 2,380.5 ng/mL * h and the Cmax (clinical; [5]) was 755 ng/mL. For the same compound, the MRT (clinical; [5]) was 2.37 h, the Tmax (clinical; [5]) was 0.5 h and the t1/2 (clinical; [5]) was 1.72 h. The AUCext (clinical; [6]) was 10.5%, the AUCextra (clinical; [6]) was 595 ng·h/mL and the AUClast (clinical; [6]) was 17,650 ng/mL * h. The AUCtotal (clinical; [6]) was 18,246 ng/mL * h, the Cmax (clinical; [6]) was 9,540 ng/mL and the MRT (clinical; [6]) was 6.0 h. For the same compound, the Tmax (clinical; [6]) was 2.17 h, the t1/2 (clinical; [6]) was 5.7 h and the AUCext (clinical; [7]) was 5%. The AUCtotal (clinical; [7]) was 6,030 ng/mL * h, the Clearance (clinical; [7]) was 28.94 L/h/m^2 and the Vss (clinical; [7]) was 80.89 L/m^2. For the same compound, the Vz (clinical; [7]) was 94.79 L/m^2, the AUCext (clinical; [8]) was 3.8% and the AUCtotal (clinical; [8]) was 5,071 ng/mL * h. The Clearance (clinical; [8]) was 29.6 L/h/m^2, the Vss (clinical; [8]) was 84.3 L/m^2 and the Vz (clinical; [8]) was 93.7 L/m^2. For the same compound, the AUCext (clinical; [9]) was 0.9%, the AUCextra (clinical; [9]) was 54 ng·h/mL and the AUClast (clinical; [9]) was 3,152 ng/mL * h. The AUCtotal (clinical; [9]) was 3,294 ng/mL * h, the Cmax (clinical; [9]) was 1,830 ng/mL and the MRT (clinical; [9]) was 1.5 h. It also gave a Tmax (clinical; [9]) of 0.5 h, a t1/2 (clinical; [9]) of 1.6 h and a Total systemic clearance (clinical; cohorts 1-4 combined) of 28.83±8.51 L/h/m^2. For the same compound, the “distributive volume VSS” value (clinical; cohorts 1-4 combined) was 85.25±31.60 L/m^2, the “distributive volume VZ” value (clinical; cohorts 1-4 combined) was 98.05±36.41 L/m^2 and the Clearance (clinical; human, in vivo, 100 mg/m2) was 924 mL/min. For the same compound, the Vd (clinical; human, in vivo, 100 mg/m2, Vss, Cohorts 1 & 2, 17-AAG 100 mg/m^2, Median) was 159 L, the half-life (clinical; human, in vivo, 150 mg/m2) was 2.2 h and the Vd (clinical; human, in vivo, 150 mg/m2, Vss, Cohorts 3 & 4, 17-AAG 150 mg/m^2, Mean) was 143 L. It also gave a Vd (clinical; human, in vivo, 150 mg/m2, Vz, Cohorts 3 & 4, 17-AAG 150 mg/m^2, Median) of 172 L, a Vd (clinical; human, in vivo, distributive volume VZ, cohorts 1-4 combined) of 175 ± 68.2 L and an AUC (clinical; human, plasma, intravenous, 100 mg/m2, AUCextra, Cohorts 1 & 2, 17-AAG 100 mg/m^2, Mean) of 225 ng·h/mL. It also gave an AUC (clinical; human, plasma, intravenous, 100 mg/m2, AUCextra, Cohorts 1 & 2, 17-AAG 100 mg/m^2, Median) of 166 ng·h/mL, an AUC(0-t) (clinical; human, plasma, intravenous, 100 mg/m2, AUClast, Cohorts 1 & 2, 17-AAG 100 mg/m^2, Mean) of 3580 ng·h/mL and an AUC(0-t) (clinical; human, plasma, intravenous, 100 mg/m2, AUClast, Cohorts 1 & 2, 17-AAG 100 mg/m^2, Median) of 3350 ng·h/mL. For the same compound, the Clearance (clinical; human, plasma, intravenous, 100 mg/m2, Clearance, Cohorts 1 & 2, 17-AAG 100 mg/m^2, Mean) was 879 mL/min, the Cmax (clinical; human, plasma, intravenous, 100 mg/m2, Cmax, Cohorts 1 & 2, 17-AAG 100 mg/m^2, Mean) was 1790 ng/mL and the Cmax (clinical; human, plasma, intravenous, 100 mg/m2, Cmax, Cohorts 1 & 2, 17-AAG 100 mg/m^2, Median) was 1740 ng/mL. The MRT (clinical; human, plasma, intravenous, 100 mg/m2, MRT, Cohorts 1 & 2, 17-AAG 100 mg/m^2, Mean) was 3.32 h, the MRT (clinical; human, plasma, intravenous, 100 mg/m2, MRT, Cohorts 1 & 2, 17-AAG 100 mg/m^2, Median) was 2.89 h and the Tmax (clinical; human, plasma, intravenous, 100 mg/m2, Tmax, Cohorts 1 & 2, 17-AAG 100 mg/m^2, Mean) was 1 h. The Tmax (clinical; human, plasma, intravenous, 100 mg/m2, Tmax, Cohorts 1 & 2, 17-AAG 100 mg/m^2, Median) was 1 h, the Vd (clinical; human, plasma, intravenous, 100 mg/m2, Vss, Cohorts 1 & 2, 17-AAG 100 mg/m^2, Mean) was 174 L and the Vd (clinical; human, plasma, intravenous, 100 mg/m2, Vz, Cohorts 1 & 2, 17-AAG 100 mg/m^2, Mean) was 193 L. The Vd (clinical; human, plasma, intravenous, 100 mg/m2, Vz, Cohorts 1 & 2, 17-AAG 100 mg/m^2, Median) was 188 L, the half-life (clinical; human, plasma, intravenous, 100 mg/m2, t1/2, Cohorts 1 & 2, 17-AAG 100 mg/m^2, Mean) was 2.49 h and the half-life (clinical; human, plasma, intravenous, 100 mg/m2, t1/2, Cohorts 1 & 2, 17-AAG 100 mg/m^2, Median) was 2.29 h. For the same compound, the AUC (clinical; human, plasma, intravenous, 150 mg/m2, AUCextra, Cohorts 3 & 4, 17-AAG 150 mg/m^2, Mean) was 256 ng·h/mL, the AUC (clinical; human, plasma, intravenous, 150 mg/m2, AUCextra, Cohorts 3 & 4, 17-AAG 150 mg/m^2, Median) was 199 ng·h/mL and the AUC(0-t) (clinical; human, plasma, intravenous, 150 mg/m2, AUClast, Cohorts 3 & 4, 17-AAG 150 mg/m^2, Mean) was 5770 ng·h/mL. The AUC(0-t) (clinical; human, plasma, intravenous, 150 mg/m2, AUClast, Cohorts 3 & 4, 17-AAG 150 mg/m^2, Median) was 4870 ng·h/mL, the Clearance (clinical; human, plasma, intravenous, 150 mg/m2, Clearance, Cohorts 3 & 4, 17-AAG 150 mg/m^2, Mean) was 850 mL/min and the Clearance (clinical; human, plasma, intravenous, 150 mg/m2, Clearance, Cohorts 3 & 4, 17-AAG 150 mg/m^2, Median) was 843 mL/min. For the same compound, the Cmax (clinical; human, plasma, intravenous, 150 mg/m2, Cmax, Cohorts 3 & 4, 17-AAG 150 mg/m^2, Mean) was 3470 ng/mL, the Cmax (clinical; human, plasma, intravenous, 150 mg/m2, Cmax, Cohorts 3 & 4, 17-AAG 150 mg/m^2, Median) was 2740 ng/mL and the MRT (clinical; human, plasma, intravenous, 150 mg/m2, MRT, Cohorts 3 & 4, 17-AAG 150 mg/m^2, Mean) was 2.89 h. It also gave an MRT (clinical; human, plasma, intravenous, 150 mg/m2, MRT, Cohorts 3 & 4, 17-AAG 150 mg/m^2, Median) of 2.9 h, a Tmax (clinical; human, plasma, intravenous, 150 mg/m2, Tmax, Cohorts 3 & 4, 17-AAG 150 mg/m^2, Mean) of 1 h and a Tmax (clinical; human, plasma, intravenous, 150 mg/m2, Tmax, Cohorts 3 & 4, 17-AAG 150 mg/m^2, Median) of 0.97 h. The Vd (clinical; human, plasma, intravenous, 150 mg/m2, Vss, Cohorts 3 & 4, 17-AAG 150 mg/m^2, Median) was 151 L, the Vd (clinical; human, plasma, intravenous, 150 mg/m2, Vz, Cohorts 3 & 4, 17-AAG 150 mg/m^2, Mean) was 166 L and the half-life (clinical; human, plasma, intravenous, 150 mg/m2, t1/2, Cohorts 3 & 4, 17-AAG 150 mg/m^2, Mean) was 2.4 h. The half-life (clinical; human, plasma, intravenous, Terminal elimination half-life, cohorts 1-4 combined) was 2.43 ± 0.9 h, the Clearance (clinical; human, plasma, intravenous, Total systemic clearance, cohorts 1-4 combined) was 860 mL/min and the Vd (clinical; human, plasma, intravenous, distributive volume VSS, cohorts 1-4 combined) was 153 ± 62.3 L. For the same compound, the “effect of exposure on client proteins” value (leukemia cells) was “down-regulation of intracellular Bcr-Abl and c-Raf proteins and reduction of Akt kinase activity” and the “effect of exposure on client proteins” value [1] was “depletion of Raf-1, c-Akt, and Erk1/2”.
